The target in experiment [1] is T1, Human ALDH1A1 (Homo sapiens, UniProt P00352).
T1 construct: made in house
T1 sequence (P00352 1-501): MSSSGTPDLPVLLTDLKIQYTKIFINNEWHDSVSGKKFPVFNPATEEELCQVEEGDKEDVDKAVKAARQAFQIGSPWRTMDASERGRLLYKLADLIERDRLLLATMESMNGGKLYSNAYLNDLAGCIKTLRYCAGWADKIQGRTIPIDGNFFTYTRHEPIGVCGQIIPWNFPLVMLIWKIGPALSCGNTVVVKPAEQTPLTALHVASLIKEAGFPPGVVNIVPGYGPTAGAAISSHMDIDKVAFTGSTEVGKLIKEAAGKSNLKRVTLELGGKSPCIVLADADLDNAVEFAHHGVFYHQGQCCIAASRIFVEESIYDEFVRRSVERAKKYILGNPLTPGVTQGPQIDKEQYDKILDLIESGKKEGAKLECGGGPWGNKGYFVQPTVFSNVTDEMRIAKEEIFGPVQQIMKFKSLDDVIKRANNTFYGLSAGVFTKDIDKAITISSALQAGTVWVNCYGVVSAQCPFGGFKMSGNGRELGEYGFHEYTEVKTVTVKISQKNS
Nature of the experiment: ALDH1A1 inhibition, IC50 determination. Format: biochemical. The settings on record: 5 μM hexanal as substrate; mean ± SE. The protocol: (§1) Human ALDH1A1, ALDH1A3, and ALDH3A1 were cloned and recombinantly expressed from the pET-30 Xa/LIC vector. Protein purification was achieved by affinity chromatography on a nickel-charged chelating Sepharose Fast Flow 5-mL column (His Trap column, Cytiva), which specifically binds the protein due to its N-terminal (His)6 tag, using an ÄKTA FPLC system (Cytiva), as previously described.[55] Enzymes including the His tag were stored at −80 °C in 20 mM Tris/HCl and 0.5 M NaCl, pH 8.0, until use. Reaction buffers were as follows: ALDH1A1 was assayed in 50 mM HEPES, 0.5 mM EDTA, and 0.5 mM DTT, pH 8.0; ALDH1A3 was assayed in 50 mM HEPES, 30 mM MgCl2, and 5 mM DTT, pH 8.0; and ALDH3A1 was assayed in 50 mM Tris–HCl and 5 mM DTT, pH 8.0. Activity under standard conditions was measured fluorimetrically at 25 °C using a Cary Eclipse (Varian) fluorimeter to follow the purification procedure and to check the enzyme concentration before each kinetic experiment. The fluorescence of NADH was characterized at 460 nm with excitation at 340 nm, and 5 μM NAD(P)H was added as an internal standard to obtain the absolute reaction rates.[55] Standard activity was measured at saturating concentrations of substrate using 30 μM hexanal (ALDH1A1), 250 μM hexanal (ALDH1A3), or 250 μM 4-NBA (ALDH3A1). NAD^+ was 500 μM for ALDH1A1 and ALDH1A3, and NADP^+ was 1 mM for ALDH3A1.
(§2) In order to determine the IC50 values, reaction rates were determined at various concentrations of inhibitor at a fixed concentration of substrate. As substrates for ALDH1A1, ALDH1A3, and ALDH3A1, 5 μM hexanal, 6 μM hexanal, and 31 μM 4-NBA, respectively, were used. The IC50 values were calculated by nonlinear fitting of the obtained data to a sigmoidal plot using GraFit 5.0 (Erithacus software), with the following 4-parameter equation [drawing 2] , where y is the specific activity, x is the inhibitor concentration, background is the minimum y value, range is the fitted uninhibited value minus the background, and s is the slope factor. Values are expressed as the mean ± SE.

The next experiment concerns the target T2, Human ALDH1A3 (Homo sapiens, UniProt P47895).
T2 construct: made in house
T2 sequence (P47895 1-512): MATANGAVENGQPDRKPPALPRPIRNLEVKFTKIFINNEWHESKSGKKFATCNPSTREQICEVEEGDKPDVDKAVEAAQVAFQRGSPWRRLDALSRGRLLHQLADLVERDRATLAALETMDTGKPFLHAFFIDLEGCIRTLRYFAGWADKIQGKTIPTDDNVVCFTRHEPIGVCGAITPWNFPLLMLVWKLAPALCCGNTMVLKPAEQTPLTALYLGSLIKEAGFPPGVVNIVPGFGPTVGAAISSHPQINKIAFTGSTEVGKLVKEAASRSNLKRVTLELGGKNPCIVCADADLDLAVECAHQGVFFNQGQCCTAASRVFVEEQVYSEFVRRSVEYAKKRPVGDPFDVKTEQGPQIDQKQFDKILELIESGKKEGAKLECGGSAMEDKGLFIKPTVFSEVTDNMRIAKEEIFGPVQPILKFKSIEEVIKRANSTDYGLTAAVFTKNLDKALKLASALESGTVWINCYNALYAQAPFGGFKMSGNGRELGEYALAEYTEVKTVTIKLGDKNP
Nature of the experiment: ALDH1A3 inhibition, IC50, Ki and type of inhibition. Format: biochemical. The settings on record: 6 μM hexanal as substrate; mean ± SE. The protocol: Human ALDH1A1, ALDH1A3, and ALDH3A1 were cloned and recombinantly expressed from the pET-30 Xa/LIC vector. Protein purification was achieved by affinity chromatography on a nickel-charged chelating Sepharose Fast Flow 5-mL column (His Trap column, Cytiva), which specifically binds the protein due to its N-terminal (His)6 tag, using an ÄKTA FPLC system (Cytiva), as previously described.[55] Enzymes including the His tag were stored at −80 °C in 20 mM Tris/HCl and 0.5 M NaCl, pH 8.0, until use. Reaction buffers were as follows: ALDH1A1 was assayed in 50 mM HEPES, 0.5 mM EDTA, and 0.5 mM DTT, pH 8.0; […] Activity under standard conditions was measured fluorimetrically at 25 °C using a Cary Eclipse (Varian) fluorimeter to follow the purification procedure and to check the enzyme concentration before each kinetic experiment. […] In order to determine the IC50 values, reaction rates were determined at various concentrations of inhibitor at a fixed concentration of substrate. […] Values are expressed as the mean ± SE. […] The data of enzymatic activities at different inhibitor concentrations were fitted to the Michaelis–Menten equation to determine the values of Km and Vmax. Next, results were fitted to the equations for competitive, given by [drawing 3]; noncompetitive, given by [drawing 4]; uncompetitive, given by [drawing 5]; and mixed, given by [drawing 6] .[56] The type of inhibition was selected based on the lowest error value. Parameters were expressed as the mean ± SE.

The test system of a further experiment is LNCaP. Nature of the experiment: MTT chemosensitivity assay, LNCaP. Format: cell-based, human. To be noted: Homo sapiens, LNCaP, 96 h exposure, ± SD, at least three independent experiments. The protocol: (§3) MTT (3-(4, 5-dimethyl-2-thiazolyl)-2, 5-diphenyl-2H-tetrazolium bromide) assay was used to determine cell viability.[64] Immortalized PCa cells (PC-3, Du-145, and LNCaP) were seeded in 96-well plates and allowed to adhere overnight at 37 °C, 5% CO2, and 100% humidity. […] After 96 h of exposure, 200 μL of MTT (Sigma) solution (0.5 mg/mL) was added to each well and incubated at 37 °C for 4 h. The formazan crystals were dissolved in DMSO (Sigma), and the absorbance was read using a microplate reader (Multiskan EX; Thermo Fisher Scientific) at 540 nm. Data analysis was performed using Microsoft Excel 2013 and GraphPad Prism software.

For a further experiment, the system named is PC3. Kind of experiment: MTT chemosensitivity assay, PC3. In kind it is cell-based, human. To be noted: Homo sapiens, PC-3, 96 h exposure, ± SD, at least three independent experiments. As to the method:
as §3

The next experiment deals with DU145. Kind of experiment: MTT chemosensitivity assay, DU145. Format: cell-based, human. The settings on record: Homo sapiens, DU-145, 96 h exposure, ± SD, at least three independent experiments. As to the method:
as §3

Experiment [2] has as its target T1, Human ALDH1A1. Nature of the experiment: Inhibition screening, single point at 10 μM, ALDH1A1. Format: biochemical. The settings on record: 10 μM compound; 5 μM hexanal (Figure S1). The protocol:
as §1
All compounds tested were dissolved in DMSO and assayed at a final concentration of 1% (v/v) DMSO. […] For the initial screening, the enzymatic activity was measured in 96-well plates (final volume of 200 μL) in a Victor 3 Multilabel Plate Reader (Perkin Elmer), by monitoring the fluorescence of the NAD(P)H produced during the reaction (excitation at 340 nm and emission at 460 nm). Alternatively, the enzymatic activity was measured in a Varian Cary 400 UV–vis spectrophotometer, by monitoring the increase in the absorbance of NAD(P)H at 340 nm (ε = 6.22 mM^–1·cm^–1) or in a Cary Eclipse Varian fluorimeter, as described above. […] For ALDH1A1, 5 μM hexanal (Sigma) was used. For ALDH1A3, 10 and 250 μM hexanal (Sigma) were used. For ALDH3A1, 4-NBA (Sigma) was used at 31 and 250 μM. All substrates were prepared in the corresponding assay buffer at a concentration of 2 mM and further diluted to reach the final concentrations required per experiment. The concentration of the enzyme was kept from 50- to 100-fold lower than that of the substrate for all enzymatic assays.

For experiment [3], the target named is T1, Human ALDH1A1. Kind of experiment: DEAB analogues as substrates of ALDH1A1. Format: biochemical. The settings on record: 10 μM compound as substrate, relative to activity with 10 μM hexanal (Figure S2). As to the method:
as §1
According to their structure with a carbonyl group, compounds were tested for their substrate properties against ALDH1A1, ALDH1A3, and ALDH3A1. […] Results are expressed as the percentage of activity at 10 μM versus the activity at 10 μM of their standard substrate (hexanal or 4-NBA). Values are expressed as the mean ± SE.

In another experiment the target is T3, Human ALDH3A1 (Homo sapiens, UniProt P30838).
T3 construct: made in house
T3 sequence (P30838 1-453): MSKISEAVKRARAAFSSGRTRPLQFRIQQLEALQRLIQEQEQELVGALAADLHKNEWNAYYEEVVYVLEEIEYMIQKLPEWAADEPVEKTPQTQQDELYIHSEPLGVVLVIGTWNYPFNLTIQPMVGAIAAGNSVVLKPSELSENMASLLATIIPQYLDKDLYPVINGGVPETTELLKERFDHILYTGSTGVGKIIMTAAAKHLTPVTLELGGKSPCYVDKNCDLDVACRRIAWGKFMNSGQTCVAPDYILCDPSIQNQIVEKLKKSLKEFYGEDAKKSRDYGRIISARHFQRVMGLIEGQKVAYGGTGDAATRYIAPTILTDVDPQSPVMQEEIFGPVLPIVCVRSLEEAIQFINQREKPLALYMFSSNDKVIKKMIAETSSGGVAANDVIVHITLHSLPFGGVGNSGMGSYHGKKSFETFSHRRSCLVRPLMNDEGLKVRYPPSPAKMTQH
Kind of experiment: ALDH3A1 inhibition, IC50, Ki and type of inhibition. In kind it is biochemical. As to the method:
as §1, §2
Activity assays to determine the type of inhibition and Ki value were performed using various substrate and inhibitor concentrations maintaining the same conditions as for the IC50 experiments and using GraFit 5.0 for data processing. The data of enzymatic activities at different inhibitor concentrations were fitted to the Michaelis–Menten equation to determine the values of Km and Vmax. Next, results were fitted to the equations for competitive, given by [drawing 3]; noncompetitive, given by [drawing 4]; uncompetitive, given by [drawing 5]; and mixed, given by [drawing 6] .[56] The type of inhibition was selected based on the lowest error value. Parameters were expressed as the mean ± SE.

Consider `COc1cc(C=O)ccc1N1CCCC1` [Compound 29, 3-Methoxy-4-(pyrrolidin-1-yl)benzaldehyde], for which the half-maximal inhibitory concentration (IC50) on Human ALDH1A1 [1] was 0.88 ± 0.05 µM; on Human ALDH1A3 it was 4.86 ± 0.81 µM.
Regarding `Cc1cc(C=O)ccc1N1CCCC1` [Compound 26, 3-Methyl-4-(pyrrolidin-1-yl)benzaldehyde], the IC50 on Human ALDH1A1 [1] was 0.8 ± 0.16 µM; in the experiment on LNCaP, 172 ± 8 µM; in the experiment on PC3, greater than 200 µM; in the experiment with DU145, greater than 200 µM; at Human ALDH1A3, 1.15 ± 0.15 µM.
`CCCN(CCC)c1ccc(C=O)cc1` [Compound 1, 4-(Dipropylamino)benzaldehyde]: at Human ALDH1A1 [2], the “remaining ALDH1A1 activity” value amounted to 12%. Also, the IC50 is 73 ± 14 µM in the experiment on LNCaP, greater than 200 µM with PC3 and 190 ± 25 µM in the experiment on DU145.
On to `O=Cc1ccc(N2CCCC2)cc1` [Compound 4, 4-(Pyrrolidin-1-yl)benzaldehyde], for which the “remaining ALDH1A1 activity” value at Human ALDH1A1 [2] came out at 10%.
Consider `CCN(CC)c1ccc(C=O)cc1[N+](=O)[O-]` [Compound 19, 4-(Diethylamino)-3-Nitrobenzaldehyde], for which, at Human ALDH1A1 [3], the ALDH1A1 substrate activity is recorded as 69%. The concentration for half-maximal inhibition (IC50) with LNCaP is 136 ± 13 µM; in the experiment with PC3 it was greater than 200 µM; on Human ALDH3A1 (31 μM 4-NBA as substrate, mean ± SE), 1.29 ± 0.15 µM; in the experiment on DU145 it was greater than 200 µM. On Human ALDH3A1 (4-NBA as substrate), the “type of inhibition ALDH3A1” value is recorded as “competitive”. The Ki on Human ALDH3A1 (4-NBA as substrate, fit to competitive inhibition equation, mean ± SE) is 0.24 ± 0.04 µM.
On to `CCN(CC)c1ccc(C=O)cc1Br` [Compound 13, 3-Bromo-4-(diethylamino)benzaldehyde], for which, on Human ALDH1A1 [2], the “remaining ALDH1A1 activity” value came out at 24%. The ALDH1A1 substrate activity at Human ALDH1A1 [3] was roughly 60%. The IC50 in the experiment with LNCaP amounted to 47 ± 0.6 µM; in the experiment on PC3, 166 ± 41 µM; in the experiment on DU145, 123 ± 12 µM; on Human ALDH1A3, 10.7 ± 1.3 µM.
For the compound `O=Cc1ccc(N2CCCC2)c(Cl)c1` [Compound 12, 3-Chloro-4-(pyrrolidin-1-yl)benzaldehyde], on Human ALDH1A1 [2], the “remaining ALDH1A1 activity” value came to 17%. The IC50 on Human ALDH1A3 is 0.31 ± 0.03 µM.
